Measurements: patent publication US6492174B1, “Methods of initiating embryogenic cultures in plants” (Institute of Paper Science & Technology, priority 2000, dated 2002)

Key:
[1] = test system: Norway spruce zygotic embryos; assay: Norway spruce initiation after ABA pre-treatment of seed or explant, ten weeks; type: cell-based
Method: In this Example, various ABA pre-treatment methods are compared.
Explants were zygotic embryos flipped out of the megagametophyte, prepared as in Example 1. The experiment consisted of four replications, with a replication consisting of ten explants in a single petri dish. Explants were cultured on solid media lacking ABA.
The treatments were designed to investigate the effects of pre-treating the whole seed compared to treating the explant (i.e. the embryo and megagametophyte) after their removal from the seed. It is presumed that soaking a whole seed will result in less ABA uptake by the megagametophyte and embryo than soaking them directly in ABA due to their being surrounded by seed tissue. Two treatments also compared the effect of the pH of the ABA solution. In Treatment #1, the control, seeds were soaked in water for 24 hours, and then explants were prepared as in Example 1. In Treatment #2, seeds were soaked in 5 ppm ABA for 24 hours prior to explant removal. In Treatment #3, seeds were soaked in 20 ppm ABA for 24 hours prior to explant removal. In Treatment #4, seeds were soaked in water for 24 hours and then the explants were removed and soaked in a 5 ppm ABA solution of pH 4.5 for 30 minutes. In Treatment #5 seeds were soaked in water for 24 hours and then the explants were removed and soaked in a 5 ppm ABA solution of pH 5.5 for 30 minutes. After ten weeks, the explants were examined and the frequency of embryogenic culture initiation was scored (Table 44).

[2] = test system: Pinus embryogenic cultures; settings: solid initiation media containing 30-90 mg/l ABA; cited from earlier work
[3] = test system: Loblolly pine megagametophytes; assay: Vacuum infiltration of abscisic acid solutions (liquid media #1036) before culture on solid media #1042, eight weeks; type: cell-based
Source text: In this experiment the effects of megagametophyte pre-treatment by vacuum infiltration with abscisic acid solutions of varying concentration was investigated. The explants were megagametophytes from summer cones of four open pollinated individual trees, representing multiplicity of genotypes. The seeds contained Stage 2-4 zygotic embryos. Megagametophytes were excised from sterilized seeds, as described in Example 4.
Prior to culturing, the megagametophytes were vacuum infiltrated with liquid growth media #1036 (see Table 47) containing 0, 1, 5, or 25 ppm abscisic acid (See Table 19 for treatment media compositions). After vacuum infiltration, each megagametophyte was placed on 2 ml solid culture media #1042 (see Table 47 for composition) in a single well on a culture well plate.
One possible explanation for the results is that vacuum treatment may damage the megagametophytes.

[4] = test system: rice (Oryza sativa) cultivar Taipei 309 dehulled seeds; assay: Rice embryogenic callus diameter on MS media with 2.0 mg/l 2,4-D, two weeks; type: cell-based; settings: for Callus Diameter (mm) + (std. error): two weeks
Source text: In this experiment, brassinolide and elevated atmospheric pressure improved the initiation of embryogenic cultures in rice (Oryza sativa). Rice, an annual angiosperm, is quite taxonomically distant from the conifers used in previous examples. However, as this example makes clear, brassinosteroids and elevated atmospheric pressure effectively increase embryogenic culture initiation of in a wide variety of species.
In this experiment, four initiation treatments were studied, using explants from mature Japaonica rice seeds (cultivar Taipei 309). The explants were dehulled sterilized seeds. About 400 mature seeds were dehulled and surface sterilized in a 5.25% bleach solution for 25 minutes and then rinsed three times with sterile deionized water. About 70 explants were placed into each of four treatment petri dishes containing solid media. The explants were placed with the embryo side up. The basal media was a Murashige and Skoog (MS) media containing 2.0 mg/l 2,4-D. Plates were wrapped in PARAFILM and cultured in the dark at 27° for two weeks.
Treatment 1, the control treatment, consisted of the above-described basal media, contained no brassinolide, and was cultured at atmospheric pressure. Treatment 2 contained the basal media and was cultured at 1.5 atm of pressure. Treatment 3 contained basal to which 0.1 μM brassinolide was added and was cultured at normal atmospheric pressure. Treatment 4 contained basal media to which 1 μM brassinolide was added and was cultured at atmospheric pressure.
After two weeks, embryogenic callus had developed on most of the explants. The embryogenic callus formed in spherical formations around the embryo. During culture, the scutellum elongated and the embryogenic calli formed masses around the base of the scutellum, covering and obscuring the rest of the embryo. Initiation was scored by measuring the diameter of the embrygenic callus on each explant. A larger callus contains more somatic embryos and thus has a greater potential to supply viable embryos for subsequent regeneration of whole plants. Callus size was measured by observing callus under a dissecting scope fitted with an ocular measurement device allowing accurate measurements to 0.1 mm.

[5] = genotype 5-1207, treatment 2, 1 ppm abscisic acid
[6] = genotype 5-1207, treatment 3, 5 ppm abscisic acid
[7] = genotype 5-1207, treatment 4, 25 ppm abscisic acid
[8] = genotype 7-1051, treatment 2, 1 ppm abscisic acid
[9] = genotype 7-1051, treatment 3, 5 ppm abscisic acid
[10] = genotype 7-1051, treatment 4, 25 ppm abscisic acid
[11] = genotype 11-1055, treatment 2, 1 ppm abscisic acid
[12] = genotype 11-1055, treatment 3, 5 ppm abscisic acid
[13] = genotype 11-1055, treatment 4, 25 ppm abscisic acid
[14] = genotype 11-1507, treatment 2, 1 ppm abscisic acid
[15] = genotype 11-1507, treatment 3, 5 ppm abscisic acid
[16] = genotype 11-1507, treatment 4, 25 ppm abscisic acid
[17] = total, treatment 2, 1 ppm abscisic acid
[18] = total, treatment 3, 5 ppm abscisic acid
[19] = total, treatment 4, 25 ppm abscisic acid

## CC1=CC(=O)CC(C)(C)C1(O)/C=C/C(C)=C\C(=O)O (stereo not shown) [ABA, 5-(1-hydroxy-2,6,6,-trimethyl-4-oxo-2-cyclohexen-1-yl)-3-methyl-2,4-penta dienoic acid]
[1]; explant soaked in 5 ppm ABA (pH 4.5), 30 minutes
  % Initiating (std. error): 31.2 (12.2) %
[1]; explant soaked in 5 ppm ABA (pH 5.5), 30 minutes
  % Initiating (std. error): 22.0 (3.0) %
[1]; seed soaked in 5 ppm ABA, 24 hours
  % Initiating (std. error): 15.1 (6.6) %
[1]; seed soaked in 20 ppm ABA, 24 hours
  % Initiating (std. error): 24.0 (5.4) %
[2]
  initiation frequencies: 30-38%
[3]; [5]
  % of Megagametophytes Extruding: 23.3 (14.5) %
  % of Megagametophytes Initiating: 20 (11.5) %
[3]; [6]
  % of Megagametophytes Extruding: 10.0 (5.8) %
  % of Megagametophytes Initiating: 10 (5.8) %
[3]; [7]
  % of Megagametophytes Extruding: 13.3 (13.3) %
  % of Megagametophytes Initiating: 10 (10.0) %
[3]; [8]
  % of Megagametophytes Extruding: 33.3 (8.8) %
  % of Megagametophytes Initiating: 6.7 (3.3) %
[3]; [9]
  % of Megagametophytes Extruding: 30.0 (11.5) %
  % of Megagametophytes Initiating: 10 (5.8) %
[3]; [10]
  % of Megagametophytes Extruding: 56.7 (12.0) %
  % of Megagametophytes Initiating: 13.3 (8.8) %
[3]; [11]
  % of Megagametophytes Extruding: 53.3 (3.3) %
  % of Megagametophytes Initiating: 16.7 (3.3) %
[3]; [12]
  % of Megagametophytes Extruding: 66.7 (12.0) %
  % of Megagametophytes Initiating: 30 (11.5) %
[3]; [13]
  % of Megagametophytes Extruding: 36.7 (3.3) %
  % of Megagametophytes Initiating: 13.3 (3.3) %
[3]; [14]
  % of Megagametophytes Extruding: 16.7 (6.7) %
  % of Megagametophytes Initiating: 6.7 (6.7) %
[3]; [15]
  % of Megagametophytes Extruding: 6.7 (3.3) %
  % of Megagametophytes Initiating: 6.7 (3.3) %
[3]; [16]
  % of Megagametophytes Extruding: 6.7 (3.3) %
  % of Megagametophytes Initiating: 0 (0.0) %
[3]; [17]
  % of Megagametophytes Extruding: 31.7%
  % of Megagametophytes Initiating: 12.5%
[3]; [18]
  % of Megagametophytes Extruding: 28.4%
  % of Megagametophytes Initiating: 14.2%
[3]; [19]
  % of Megagametophytes Extruding: 28.4%
  % of Megagametophytes Initiating: 9.2%
[3]; vacuum infiltration, 1, 5 or 25 ppm
  promotion of extrusion or initiation: did not promote extrusion or initiation

## CC(C)[C@H](C)[C@@H](O)[C@H](O)[C@@H](C)[C@H]1CC[C@H]2[C@@H]3COC(=O)[C@H]4C[C@H](O)[C@H](O)C[C@]4(C)[C@H]3CC[C@]12C [brassinolide]
[4]; 0.1 μM brassinolide
  average callus size vs control: significantly increased
[4]; 1.0 μM brassinolide
  average callus size vs control: did not increase callus size
[4]; +0.1 μM Brassinolide
  Callus Diameter (mm) + (std. error): 4.70 (0.13) mm
[4]; +1.0 μM Brassinolide
  Callus Diameter (mm) + (std. error): 4.19 (0.12) mm
